Like-named read-outs stand apart in the source and are kept apart here.
What was measured:
MLTC-1 leydig cell tumor = experiment: Cytotoxicity assay, ATP detection, MLTC-1; format: cell-based, mouse; conditions: MLTC-1 cells in vitro, read-out: ED50 MLTC-1
Experimental: The cytotoxicity tests were performed in 96-well microtiter plates (sterile white plates with clear bottom, Corning Costar Corporation, Cambridge, Mass., USA). The anthracyclines were pipetted into the plates in 10 μl of ethanol, pure ethanol was used for control plates. Daunorubicin and aclarubicin were used as positive controls. When the ethanol had evaporated, the cells were seeded into the plates in 100 μl of appropriate medium. The number of cells seeded per well was 2500 with MES-SA, 3000 with MES-SA/D×5, 3000 with LL/2, 2000 with B16-F0 and B16-F1, 2000 with KLN-205 and 8000 with MLTC-1. The ATP content of the cells was measured after incubating the cells for three days at 37° C. with 5% CO2.
The growth medium was removed by turning the plates over, and 200 μl of ATP extraction reagent, Somalyze, were added to the wells. The plates were then incubated for 30 minutes at room temperature. The ATP measurement was performed with Luminoskan luminometer (Labsystems Oy, Helsinki, Finland) at 22° C. 20 μl of ATP monitoring reagent containing luciferin and luciferase was dispensed, and an integral measurement of 10 s with 2 s lag time was performed for each well. All reagents used were supplied by Bio-Orbit Oy, Turku, Finland.
The direct luminometer output (in relative light units, RLUS) was used to calculate the cytotoxic effect. This light signal is directly proportional to the amount of […] in a wide range (determined with Bio-Orbit ATP standard, data not shown). On the other hand, the amount of ATP is directly proportional to the amount of living cells (Kangas et al., 1984). The results are expressed as percentages of the control value of untreated cells. An IC50 value (the drug concentration resulting to an ATP signal of 50% of the untreated control signal) was graphically estimated from the % of control vs. drug concentration plot.
H075-4a was also tested with several mouse cell lines in vitro (all were purchased from ATCC, Rockville, Md., USA): Lewis lung carcinoma (LL/2) (CRL-1642), B16-F0 melanoma (CRL-6322), B16-F1 melanoma (CRL-6323), KLN-205 lung squamous cell carcinoma (CRL-1453) and MLTC-1 leydig cell tumor (CRL-2065) using daunomycin, aclarubicin and H075-1a (MA 144U1) as references.
All cells grew as monolayers and were cultured at 37° C. with 5% CO2 according to ATCC standard instructions for each cell line: LL/2 in Dulbecco's modified Eagle's medium with 4.5 g/l glucose and 10% FCS, B16-F0 and B16-F1 in MEM (Eagle) in Earle's BSS with non-essential amino acids and 10% FCS, KLN-205 in MEM (Eagle) in Earle's BSS with non-essential amino acids and 10% FCS, MLTC-1 in RPMI 1640 with 25 mM HEPES and 10% FBS. All media were purchased from Gibco BRL, the serum was Gibco BRL Foetal Bovine Serum. […]

SK-N-MC = experiment: Cytotoxicity assay, ATP detection, SK-N-MC; format: cell-based; conditions: SK-N-MC cells in vitro; read-out: ED50 SK-N-MC
[1] = tested on: L1210 mouse lymphocytic leukemia cells; experiment: Flow cytometry (mode of action), cell cycle phases; format: cell-based; conditions: for G1 (%) / G2 (%) / S + M (%) / Cells (1000/ml): L1210 cells, 24 h incubation; for G1 (%): percentage of cells in phase G1; for G2 (%): percentage of cells in phase G2; for S + M (%): percentage of cells in phases S + M; for Cells (1000/ml): starting cell number 46000 cells/ml
Experimental: L1210 mouse lymphocytic leukemia cells growing in suspension culture were maintained at exponential growth in Dulbecco's modified Eagle's medium with 4.5 g/l glucose and 10% FBS, at 37° C. with 5% CO2. The experiments were started by adding the ethanol-dissolved anthracyclines, in amounts yielding to the appropriate final concentrations, to 25 cm^2 cell culture flasks. After the ethanol had evaporated, 5 ml of an approximately 50 000 cells per ml suspension was added to the flasks. Flow cytometric analysis was made of the original cell suspension and after one, two and three days incubation with or without the drugs.
Cells were prepared for flow cytometric DNA analysis according to the method of Vindelov et al. (1985). The analysis was performed with an Epics XL flow cytometer (Coulter Corporation, Miami, Fla.). Samples were illuminated with a […] air-cooled argon ion laser (488 nm) and the fluorescence of propidium iodide was detected through 620-nm band pass filter. The number of cells in each sample was separately counted by adding an internal calibrator (50 μl of a solution containing 1×10^6 Fluoresbrite beads/ml) to 50 μl of cell suspension.
Based on the flow cytometric studies, the cell cycle phases for the cells studied could be detected. Phase G1 is the stage for RNA and protein synthesis, but not for replication. Transition from phase G1 to phase S means the initiation of replication, and the phase will last until all of the DNA has been replicated. The period from phase S up to mitosis (M) is phase G2.

| SMILES | EC50 (MLTC-1 leydig cell tumor) | EC50 (SK-N-MC) | G1 (%) ([1]; concentration 1 × 10^−8M) | G2 (%) ([1]; concentration 1 × 10^−8M) | S + M (%) ([1]; concentration 1 × 10^−8M) | Cells (1000/ml) ([1]; concentration 1 × 10^−8M) | G1 (%) ([1]; concentration 3.3 × 10^−8M) | G2 (%) ([1]; concentration 3.3 × 10^−8M) | S + M (%) ([1]; concentration 3.3 × 10^−8M) | Cells (1000/ml) ([1]; concentration 3.3 × 10^−8M) | cell cycle phase in which cells are arrested ([1]; flow cytometric DNA analysis) | EC50 (MLTC-1 leydig cell tumor; Mus musculus, Leydig) |
| --- | --- | --- | --- | --- | --- | --- | --- | --- | --- | --- | --- | --- |
| CCC1(O)CC(OC2CC(N(C)C)C(OC3CC(O)C(OC4CC(O)C(O)C(C)O4)C(C)O3)C(C)O2)c2c(O)c3c(c(O)c2C1C(=O)OC)C(=O)c1cccc(O)c1C3=O (stereo not drawn) [Compound H075-4a] | 60 nM | 9 nM | 40% | 12% | 48% | 88 1000/ml | 45% | 19% | 36% | 67 1000/ml | arrested the cells in phase G1 |  |
| COc1cccc2c1C(=O)c1c(O)c3c(c(O)c1C2=O)C[C@@](O)(C(C)=O)C[C@@H]3O[C@H]1C[C@H](N)[C@H](O)[C@H](C)O1 [Daunorubicin] |  | 3 nM | 11% | 38% | 51% | 66 1000/ml | 6% | 66% | 27% | 23 1000/ml |  | 900 nM |

— patent US6399583B1, “Hybrid anthracyclines from genetically engineered streptomyces galilaeus strains, process for production and uses thereof” (Galilaeus Oy, priority 1998, dated 2002)
